Laboratory results from patent US20210093715A1, “ANTI-ANGIOGENESIS THERAPY FOR THE TREATMENT OF BREAST CANCER” (Genentech, Inc., priority 2008, published 2021).
Where two headings read alike, the source gives them in different places.

What was measured:
[1] = test system: metastatic breast cancer; details: weekly paclitaxel + bevacizumab vs paclitaxel alone; cited from earlier work
[2] = test system: metastatic breast cancer; details: docetaxel + bevacizumab (7.5 and 15 mg/kg q3w) vs docetaxel alone; cited from earlier work
[3] = test system: previously treated metastatic breast cancer; details: capecitabine + bevacizumab vs capecitabine alone; cited from earlier work
[4] = test system: previously untreated locally recurrent or metastatic HER2-negative breast cancer
From the text: (§1) The primary objective of the study was to determine the clinical benefit of the addition of bevacizumab to standard chemotherapy regimes for previously untreated metastatic breast cancer, as measured by PFS based on investigator tumor assessment. See, e.g., O'Shaughnessy and Brufsky, (2008), Clinical Breast Cancer, 8(4): 370-373. The trial comprised two study groups that evaluated AVASTIN® with different types of chemotherapies in women who had not previously received chemotherapy for their advanced HER2-negative breast cancer. In the first study group, women received either AVASTIN or placebo in combination with taxane or anthracycline-based chemotherapies. In the second study group, women received either AVASTIN or placebo in combination with capecitabine chemotherapy. The analysis of this example was based on information from 1237 patients. These trials evaluated the efficacy of bevacizumab (AVASTIN®) as therapy for patients previously untreated metastic breast cancer.
(§2) In the RIBBON1 trial, the following treatment protocol was used:
(§3) Arm A: bevacizumab 15 mg/kg IV on day 1 of each 21-day cycle and either cohort 1, cohort 2 or cohort 3;
(§4) Arm B: placebo IV on day 1 of each 21-day cycle and either cohort 1, cohort 2 or cohort 3.
(§5) Cohort 1: Either of the following taxanes administered every 3 weeks
(§6) Cohort 2: Any of the following anthracycline-based combination chemotherapies, for subjects previously untreated with anthracyclines, every 3 weeks:
(§7) Cohort 3: Capecitabine 1000 mg/m^2 oral twice daily on Days 1-14 of each 3-week cycle.
(§8) The secondary endpoints included objective response rate (ORR), one-year survival rate, overall survival (OS), and PFS based on IRC assessment and safety. OS is defined as the time from randomization until death from any cause. ORR is defined as the percentage of patients who achieved a complete or partial response confirmed ≥28 days after initial documentation of response. One-year survival rate is assessed between treatment arms using the normal approximation method. ORR in patients with measurable disease at baseline is compared using the stratified Mantel-Haenszel χ2 test. Randomization stratification factors are included in all stratified analyses.

[5] = test system: previously untreated locally recurrent or metastatic HER2-negative breast cancer; assay: RIBBON1 randomized phase III trial, efficacy (PFS, ORR, OS) of bevacizumab or placebo with chemotherapy; assay type: in vivo, human; details: for % of deaths: overall survival analysis; for ORR (%) / ORR, number of patients with objective response: patients with measurable disease; for median duration of objective response: among responders; for PFS compared to chemotherapies alone (in words): bevacizumab added to capecitabine, taxane or anthracycline-based chemotherapy, 1st-line
From the text: as §1, §2, §3, §4, §5
Paclitaxel protein-bound particles (Abraxane®) 260 mg/m^2 IV
as §6
FEC: 5-fluorouracil 500 mg/m^2 IV, epirubicin 90-100 mg/m^2 IV and cyclophosphamide 500 mg/m^2 IV on Day 1
FAC: 5-fluorouracil 500 mg/m^2 IV, doxorubicin 50 mg/m^2 IV and cyclophosphamide 500 mg/m^2 IV on Day 1
AC: Doxorubicin 50-60 mg/m^2 IV and cyclophosphamide 500-600 mg/m^2 IV on Day 1
EC: Epirubicin 90-100 mg/m^2 IV and cyclophosphamide 500-600 mg/m^2 IV on Day 1
as §7
All subjects had histologically or cytologically confirmed adenocarcinoma of the breast, subjects may have had either measureable (per the Response Evaluation Criteria in Solid Tumors (RECIST)) or non-measureable locally recurrent or metastatic disease. The locally recurrent disease was not amenable to resection with curative intent.
The trial was conducted worldwide (at least 22 countries) and accrued 1237 subjects/patients (Taxane (T): 307; Anthracycline (Anthra): 315; and Capecitabine (Cap): 615).
The primary endpoint of the study was progression free survival (PFS), defined as the time from randomization to disease progression or to death, based on investigator assessment. Kaplan-Meier methodology can be used to estimate median PFS for each treatment arm. In certain embodiments, the hazard ratio for PFS will be estimated using a stratified Cox regression model with the same stratification factors used in the stratified log-rank test. Analyses of PFS in each cohort is performed at the two-sided α=0.05 level. Time-to-event data are compared between treatment arms using a stratified log-rank test. The Kaplan-Meier method is used to estimate duration of time-to-event data. The 95% confidence intervals for median time-to-event are computed using the Brookmeyer-Crowley method. The HR for time-to-event data are estimated using a stratified Cox regression model.
as §8, with “test.” for “test. Randomization stratification factors are included in all stratified analyses.”

[6] = Cap cohort, BV arm = bevacizumab + capecitabine, PL arm = placebo + capecitabine, investigator assessment
[7] = Cap cohort, BV or placebo + capecitabine
[8] = Cap cohort, second PFS figure of b186, assessor not stated (FIG. 2 shows INV and IRC)
[9] = T/Anthra cohort, BV or placebo + taxane/anthracycline

## BV: recombinant humanized anti-VEGF monoclonal antibody, human IgG1 framework with CDRs from murine antibody A.4.6.1
[1]
  progression-free survival (PFS): significantly longer
[2]
  progression-free survival (PFS): longer
[3]
  PFS (primary objective): failed to meet its primary objective of improving PFS
  overall response rate (ORR): higher
[4]; Anthra cohort
  AEs leading to study drug (PL or BV) discontinuation: 14.3%
  SAEs: 22.4%
[4]; Cape cohort
  AEs leading to study drug (PL or BV) discontinuation: 11.9%
  SAEs: 24.3%
[4]; Taxane cohort
  AEs leading to death (excludes AEs related to metastatic breast cancer progression): 3.4%
  AEs leading to study drug (PL or BV) discontinuation: 24.1%
  SAEs: 41.4%
[4]; bevacizumab + chemotherapy, all cohorts
  Safety: consistent with results of prior bevacizumab trials
[5]; Anthra subgroup, BV or placebo + anthracycline-based chemotherapy
  mPFS, mo (median PFS): 9.2 mo
[5]; Anthra subgroup, BV vs PL
  PFS HR (95% CI): 0.55 (0.40-0.74)
[5]; [6]
  PFS Median (months): 8.6 months
[5]; [7]
  Median OS (months): 29.0 months
  ORR (%): (35.4%)
[5]; Cap cohort, bevacizumab 15 mg/kg q3w + capecitabine vs placebo + capecitabine, investigator assessment
  PFS HR (95% CI): 0.688
[5]; Cap cohort, bevacizumab + capecitabine vs placebo + capecitabine
  OS (HR, 95% CI): 0.85 (0.63-1.14)
[5]; Cap cohort, bevacizumab + capecitabine vs placebo + capecitabine, listed as B
  OS (HR, 95% CI): 0.847
[5]; Cap cohort
  % of deaths: 30%
[5]; [8]
  PFS: 9.7 months
[5]; Capecitabine cohort
  median duration of objective response: 9.2 months
[5]; T/Anthra cohort, BV arm = bevacizumab + taxane/anthracycline, PL arm = placebo + taxane/anthracycline, investigator assessment
  PFS Median (months): 9.2 months
[5]; [9]
  Median OS (months): 25.2 months
  ORR (%): (51.3%)
  ORR, number of patients with objective response: 177
[5]; T/Anthra cohort, bevacizumab 15 mg/kg q3w + taxane/anthracycline vs placebo + taxane/anthracycline, investigator assessment
  PFS HR (95% CI): 0.644
[5]; T/Anthra cohort, bevacizumab + taxane/anthracycline vs placebo + taxane/anthracycline
  OS (HR, 95% CI): 1.03 (0.77-1.38)
[5]; T/Anthra cohort, bevacizumab + taxane/anthracycline vs placebo + taxane/anthracycline, listed as B
  OS (HR, 95% CI): 1.032
[5]; T/Anthra cohort
  % of deaths: 34%
[5]; T/Anthra cohort, second PFS figure of b186, assessor not stated (FIG. 3 shows INV and IRC)
  PFS: 10.7 months
[5]; Taxane subgroup, BV or placebo + docetaxel or Abraxane
  mPFS, mo (median PFS): 9.2 mo
[5]; Taxane subgroup, BV vs PL
  PFS HR (95% CI): 0.75 (0.56-1.01)
[5]
  PFS compared to chemotherapies alone (in words): statistically-significant improvement in PFS
[5]; listed as AVASTIN®
  PFS compared to chemotherapies alone (in words): increased the time women lived without their disease advancing
[5]; taxane/anthracycline cohort
  median duration of objective response: 8.3 months

## CCCCCOC(=O)Nc1nc(=O)n([C@@H]2O[C@H](C)[C@@H](O)[C@H]2O)cc1F [Cap, capecitabine, reference compound]
[4]; Cape cohort
  AEs leading to death (excludes AEs related to metastatic breast cancer progression): 2.5%
[4]; female, human, in vivo
  AEs leading to study drug (PL or BV) discontinuation: 11.9%
  SAEs: 18.9%
  Selected AEs (previously shown to be associated with bevacizumab): 9.0%
[5]; Cap cohort
  1-yr survival rate (%): 74%
  % of deaths: 35%
[5]; [6]
  PFS Median (months): 5.7 months
[5]; [7]
  Median OS (months): 21.2 months
  ORR (%): (23.6%)
  ORR, number of patients with objective response: 38
[5]; [8]
  PFS: 6.2 months
[5]; Capecitabine cohort
  median duration of objective response: 7.2 months
